For one experiment, the target named is T1, Solute carrier family 12 member 5 (Homo sapiens, UniProt Q9H2X9).
T1 sequence (Q9H2X9 whole entry): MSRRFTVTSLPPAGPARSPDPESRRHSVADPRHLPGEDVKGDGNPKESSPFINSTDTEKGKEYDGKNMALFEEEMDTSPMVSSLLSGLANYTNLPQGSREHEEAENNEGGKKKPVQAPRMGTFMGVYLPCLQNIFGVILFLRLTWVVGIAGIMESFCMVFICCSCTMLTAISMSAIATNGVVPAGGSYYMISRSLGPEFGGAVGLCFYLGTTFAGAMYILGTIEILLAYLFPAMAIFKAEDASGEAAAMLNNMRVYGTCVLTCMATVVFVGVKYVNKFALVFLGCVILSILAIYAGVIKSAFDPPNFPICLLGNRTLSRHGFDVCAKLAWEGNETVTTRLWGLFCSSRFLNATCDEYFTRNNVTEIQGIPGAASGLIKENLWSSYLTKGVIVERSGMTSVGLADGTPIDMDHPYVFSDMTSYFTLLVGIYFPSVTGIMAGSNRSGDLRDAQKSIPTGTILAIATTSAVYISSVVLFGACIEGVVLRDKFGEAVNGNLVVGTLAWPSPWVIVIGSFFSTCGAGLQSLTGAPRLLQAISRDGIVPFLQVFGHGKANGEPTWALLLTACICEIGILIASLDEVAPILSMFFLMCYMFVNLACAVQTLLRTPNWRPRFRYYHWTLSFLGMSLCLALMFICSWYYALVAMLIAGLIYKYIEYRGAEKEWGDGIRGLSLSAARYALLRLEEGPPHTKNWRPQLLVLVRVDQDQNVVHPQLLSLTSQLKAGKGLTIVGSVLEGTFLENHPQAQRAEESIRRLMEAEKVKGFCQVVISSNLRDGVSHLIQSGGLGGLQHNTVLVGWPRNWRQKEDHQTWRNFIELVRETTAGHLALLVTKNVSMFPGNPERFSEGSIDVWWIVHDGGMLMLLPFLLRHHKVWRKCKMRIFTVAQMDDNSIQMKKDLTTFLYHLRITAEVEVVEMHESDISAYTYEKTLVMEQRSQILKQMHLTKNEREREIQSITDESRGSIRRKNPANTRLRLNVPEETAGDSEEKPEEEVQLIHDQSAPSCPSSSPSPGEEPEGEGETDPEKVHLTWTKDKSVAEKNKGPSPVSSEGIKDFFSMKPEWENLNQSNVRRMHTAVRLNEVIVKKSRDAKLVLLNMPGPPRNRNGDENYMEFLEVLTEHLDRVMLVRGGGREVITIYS
Briefly: KCC2 modulator potency by thallium flux, dose response, cell-based, HEK293 KCC2, FluoZin-2 fluorescence (AID 1736).
Conditions: not given
As to `CCc1ccc(Nc2nnc(SCc3cc(=O)n4ccsc4n3)s2)cc1` [7-[[5-(4-ethylanilino)-1,3,4-thiadiazol-2-yl]sulfanylmethyl]-[1,3]thiazolo[3,2-a]pyrimidin-5-one], the EC50 (as a rule, the concentration that produces a half-maximal response) is 0.113 µM.
As to `O=c1c(-c2cnn(-c3ccccc3)c2)coc2cc(O)ccc12` [7-hydroxy-3-(1-phenyl-1H-pyrazol-4-yl)-4H-chromen-4-one], the EC50 was 8.92 µM.
The same measure, in the same setting: the figure for `Cc1ccc2[nH]c3c(N4CCN(Cc5ccccc5)CC4)ncnc3c2c1` [8-methyl-4-[4-(phenylmethyl)-1-piperazinyl]-5H-pyrimido[5,4-b]indole] is 3.25 µM; for `O=C(C1CCN(c2nc3ccc(Br)cc3s2)CC1)N1CCC2(CC1)OCCO2` [8-{[1-(6-bromo-1,3-benzothiazol-2-yl)piperidin-4-yl]carbonyl}-1,4-dioxa-8-azaspiro[4.5]decane] it is 5.25 µM.
The same measure, in the same setting: the figure for `O=C(C1CCCN(S(=O)(=O)c2cccc3nonc23)C1)N1CCC(Cc2ccccc2)CC1` (configuration not stated) [(1-benzofurazan-4-ylsulfonyl-3-piperidyl)-(4-benzylpiperidino)methanone] is 1460 µM; for `COc1ccc(NC(=S)NC(N)=Nc2nc(C)c3ccccc3n2)cc1` [(1E)-1-[amino-[(4-methyl-2-quinazolinyl)amino]methylidene]-3-(4-methoxyphenyl)thiourea] it is 2.8 µM; for `COc1cc(C(=S)N2CCOCC2)cc(OC)c1OC(=O)Cc1ccc(F)cc1` [(2,6-dimethoxy-4-morpholin-4-ylcarbothioyl-phenyl) 2-(4-fluorophenyl)ethanoate] it is 3.24 µM.
With `COc1cc(C(=S)N2CCOCC2)cc(OC)c1OC(=O)Cc1ccccc1` [(2,6-dimethoxy-4-morpholin-4-ylcarbothioyl-phenyl) 2-phenylethanoate], the EC50 amounted to 0.408 µM.
The compound `c1ccc(-c2csc(N=NCc3ccco3)n2)cc1` [(2-furfurylideneamino)-(4-phenylthiazol-2-yl)amine] gave an EC50 of 2.58 µM.
`COc1cc(C(=S)N2CCOCC2)ccc1OC(=O)Cc1ccc(F)cc1` [(2-methoxy-4-morpholin-4-ylcarbothioyl-phenyl) 2-(4-fluorophenyl)ethanoate] came in with an EC50 of 8.68 µM.
In turn, `CC1Cc2ccccc2N1C(=O)c1ccc(N2CCCCC2)c([N+](=O)[O-])c1` (configuration not stated) [(2-methyl-2,3-dihydroindol-1-yl)-(3-nitro-4-piperidin-1-yl-phenyl)methanone] had an EC50 of 0.632 µM.
`CC1Cc2ccccc2N1C(=O)c1ccc(N2CCCC2)c([N+](=O)[O-])c1` (configuration not stated) [(2-methyl-2,3-dihydroindol-1-yl)-(3-nitro-4-pyrrolidin-1-yl-phenyl)methanone] showed an EC50 of 0.651 µM. The EC50 values of the last two compounds are within 1.5-fold of each other.
In turn, `COC(=O)[C@@H](NC(=O)O[C@@H]1C(=O)c2ccc(OC)cc2O[C@H]1c1cccc(C(F)(F)F)c1)C(C)C` [(2S)-2-[[(2S,3S)-4-keto-7-methoxy-2-[3-(trifluoromethyl)phenyl]chroman-3-yl]oxycarbonylamino]-3-methyl-butyric acid methyl ester] registered a half-maximal effective concentration (EC50) of 1.85 µM.
On the same count and under the same terms, the figure for `N#CC(C(=O)c1cccc(F)c1)c1nc2ccccc2s1` (configuration not stated) [(2Z)-2-(3H-1,3-benzothiazol-2-ylidene)-3-(3-fluorophenyl)-3-keto-propionitrile] is 7.39 µM; for `Cc1cccc(NC(=S)NN=C2C(=O)N(CN3CCOCC3)c3ccccc32)c1C` [(3Z)-1-(morpholin-4-ylmethyl)-1H-indole-2,3-dione 3-[N-(2,3-dimethylphenyl)thiosemicarbazone]] it is 6.09 µM.
`O=C(OCn1ncc(Cl)c(Cl)c1=O)c1ccc(F)cc1` [(4,5-dichloro-6-oxopyridazin-1-yl)methyl 4-fluorobenzoate] came in with a half-maximal effective concentration (EC50) of 3.32 µM.
The same measure, in the same setting: next, `CC(C)c1onc(C(=O)N2CCN(Cc3ccccc3)CC2)c1[N+](=O)[O-]` [(4-benzylpiperazin-1-yl)-(4-nitro-5-propan-2-yl-1,2-oxazol-3-yl)methanone]: 0.392 µM.
Still for that read-out and setting: next, `Cc1onc(C(=O)N2CCN(Cc3ccccc3)CC2)c1[N+](=O)[O-]` [(4-benzylpiperazin-1-yl)-(5-methyl-4-nitro-1,2-oxazol-3-yl)methanone]: 6.9 µM.
Turning to `O=C(c1ccc(-c2ccccc2)cc1)C1CCCN(Cc2ccncc2)C1` (configuration not stated) [(4-phenylphenyl)-[1-(4-pyridylmethyl)-3-piperidyl]methanone], the midpoint of the response, the EC50, lay at 4.61 µM.
`CCOC(=O)c1c(C)[nH]c(N=Nc2ccccc2)c1C` [(5Z)-2,4-dimethyl-5-(phenylhydrazinylidene)-3-pyrrolecarboxylic acid ethyl ester] gave a half-maximal effective concentration (EC50) of 5.25 µM. This EC50 and that of the compound before are within 1.5-fold of each other.
Compound `CN1C(=O)/C(=C/c2ccccc2OCc2ccccc2)NC1=S` [(5Z)-3-methyl-5-[(2-phenylmethoxyphenyl)methylidene]-2-sulfanylidene-4-imidazolidinone] displayed an EC50 of 1640 µM.
Take `Oc1ccccc1CN=Nc1nc2ccccc2o1` [(6E)-6-[(1,3-benzoxazol-2-ylhydrazo)methylidene]-1-cyclohexa-2,4-dienone]: it took 367 µM to reach a half-maximal effect (EC50). This EC50 is about 4.5-fold lower than that of the compound before.
In the case of `CCCCCN1C/C=C\C(c2ccc(OC)cc2)N(Cc2ccc(F)cc2)C(=O)C1` (configuration not stated) [(6Z)-1-amyl-4-(4-fluorobenzyl)-5-(4-methoxyphenyl)-5,8-dihydro-2H-1,4-diazocin-3-one], the EC50 was determined as 8.78 µM. This EC50 lies about 42-fold lower than the previous one.
Same read-out and setting: next, `O=C(/C=C/c1ccco1)N1CCC(Cc2ccccc2)CC1` [(E)-1-(4-benzylpiperidin-1-yl)-3-(furan-2-yl)prop-2-en-1-one]: 9.8 µM; `CC(C)CCNC(=O)COC(=O)/C=C/c1ccc2ccccc2n1` [(E)-3-(2-quinolinyl)-2-propenoic acid [2-(3-methylbutylamino)-2-oxoethyl] ester]: 2.3 µM; `CC1Cc2ccccc2N1C(=O)/C=C/c1cccc(F)c1` (configuration not stated) [(E)-3-(3-fluorophenyl)-1-(2-methyl-2,3-dihydroindol-1-yl)-2-propen-1-one]: 192 µM.
The compound `COc1ccc(-c2nnc(S/C(=C/c3ccc(Cl)cc3)C(=O)O)o2)cc1` [(E)-3-(4-chlorophenyl)-2-[[5-(4-methoxyphenyl)-1,3,4-oxadiazol-2-yl]sulfanyl]prop-2-enoic acid] showed an EC50 of 0.388 µM.
As to `O=C(O)/C=C/c1cn(Cc2ccccc2Cl)nc1-c1ccccc1` [(E)-3-[1-(2-chlorobenzyl)-3-phenyl-pyrazol-4-yl]acrylic acid], the EC50 was found to be 0.409 µM.

Still in this experiment, the particulars now being: inactive by the depositor's call.
Turning to `COc1cccc(C2c3c(oc4ccc(F)cc4c3=O)C(=O)N2CCCN2CCOCC2)c1` (configuration not stated) [7-fluoranyl-1-(3-methoxyphenyl)-2-(3-morpholin-4-ylpropyl)-1H-chromeno[2,3-c]pyrrole-3,9-dione], the EC50 was determined as 69.9 µM.
`CCc1ccc(OCC(=O)NNC(=O)CSc2ncnc3sc(C)c(C)c23)cc1` [(4-Ethyl-phenoxy)-acetic acid N'-[2-(5,6-dimethyl-thieno[2,3-d]pyrimidin-4-ylsulfanyl)-acetyl]-hydrazide] gave an EC50 of 1070 µM.
On the same count and under the same terms, the figure for `COc1cc(OC)c(C(=O)/C=C/c2ccccc2)c(O)c1O` [(E)-1-(2,3-dihydroxy-4,6-dimethoxy-phenyl)-3-phenyl-prop-2-en-1-one] is 486 µM.
For the compound `N#C/C(=C\c1cn(-c2ccccc2)nc1-c1cccnc1)c1nnc2n1CCCCC2` [(E)-3-(1-phenyl-3-pyridin-3-yl-pyrazol-4-yl)-2-(6,7,8,9-tetrahydro-5H-[1,2,4]triazolo[4,3-a]azepin-3-yl)prop-2-enenitrile], the concentration for a half-maximal effect (EC50) worked out at 1.45 µM.

The values are drawn from BindingDB's records for doi:10.7270/Q2M32T6M (Vanderbilt Screening Center for GPCRs, Ion Channels and …, 2009).
